For 29 compounds, IC50 results are on record in patent US20160159814A1, “GLYCINE TRANSPORTER INHIBITOR” (TAISHO PHARMACEUTICAL CO., LTD., priority 2013, published 2016).

Each structure is given as a SMILES string. Like-named read-outs stand apart in the source and are kept apart here.

For orientation: IC50 means the midpoint of a concentration-inhibition curve. The low end stands for greater potency in that assay, the high end for weaker potency in that assay.

This experiment has as its target T1, human type 1 glycine transporter (GlyT1) (Homo sapiens, UniProt P48067).
T1 construct: T98G cells (glioma cells) expressing human type 1 glycine transporter (GlyT1) were used; endogenous in cells; host or cells: T98G cells (human glioma cells)
T1 sequence (P48067 1-706): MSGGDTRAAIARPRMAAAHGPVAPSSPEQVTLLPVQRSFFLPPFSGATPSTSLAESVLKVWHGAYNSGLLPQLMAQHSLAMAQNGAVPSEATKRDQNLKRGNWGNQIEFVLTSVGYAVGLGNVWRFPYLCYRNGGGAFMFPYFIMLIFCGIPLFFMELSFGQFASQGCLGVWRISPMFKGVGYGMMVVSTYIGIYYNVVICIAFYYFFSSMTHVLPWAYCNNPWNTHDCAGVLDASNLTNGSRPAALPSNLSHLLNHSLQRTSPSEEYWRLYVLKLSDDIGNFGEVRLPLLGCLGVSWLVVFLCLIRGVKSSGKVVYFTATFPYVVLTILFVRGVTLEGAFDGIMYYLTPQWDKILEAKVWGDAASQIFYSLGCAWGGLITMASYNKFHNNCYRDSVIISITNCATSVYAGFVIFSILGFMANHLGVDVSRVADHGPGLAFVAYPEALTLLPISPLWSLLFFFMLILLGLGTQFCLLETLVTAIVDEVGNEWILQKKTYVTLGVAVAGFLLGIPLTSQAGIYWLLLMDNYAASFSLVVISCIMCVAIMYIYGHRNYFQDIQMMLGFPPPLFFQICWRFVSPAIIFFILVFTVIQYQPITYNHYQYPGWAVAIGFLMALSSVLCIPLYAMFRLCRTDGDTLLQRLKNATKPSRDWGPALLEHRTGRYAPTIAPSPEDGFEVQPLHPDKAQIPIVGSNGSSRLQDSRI
Nature of the experiment: Glycine uptake inhibition experiment ([3H] glycine uptake in T98G cells expressing GlyT1). Type of experiment: cell-based. The method in brief: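 T98G glioma cells expressing human GlyT1 were pretreated 10 min with compound in HEPES buffer pH 7.4 (0.2% BSA), then incubated with compound plus 250 nM final [3H]glycine for 15 min at room temperature. Intracellular radioactivity was counted after NaOH lysis; 10 μM ALX5407 defined non-specific uptake. IC50 came from 10^−9–10^−5 M curves.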

[1] abbreviates: table section whose head prints (μm).

As for `C[C@H](O)c1cccc2c1C(F)(F)C(=O)N2Cc1ccc(F)c(Br)n1` [Compound 229, 1-[(6-bromo-5-fluoropyridin-2-yl)methyl]-3,3-difluoro-4-[(1S)-1-hydroxyethyl)-1,3-dihydro-2H-indol-2-one], 1.7 nM corresponded to half-maximal inhibition (IC50). The same measure, in the same setting: next, `C[C@H](O)c1cccc2c1C(F)(F)C(=O)N2Cc1ccncc1Cl` [Compound 185, 1-[(3-chloropyridin-4-yl)methyl]-3,3-difluoro-4-[(1S)-1-hydroxyethyl]-1,3-dihydro-2H-indol-2-one]: 280 nM. Compound `O=C1N(Cc2cncc(Cl)c2)c2ccc(F)c(C(O)C(F)(F)F)c2C1(F)F` (centres unmarked) [Compound 48, 1-[(5-chloropyridin-3-yl)methyl]-3,3,5-trifluoro-4-(2,2,2-trifluoro-1-hydroxyethyl)-1,3-dihydro-2H-indol-2-one] had an IC50 (glycine uptake inhibition) of 85 nM. In the case of `O=C1N(Cc2ccnc(F)c2)c2cccc([C@@H](O)C(F)(F)F)c2C1(F)F` [Compound 149, 3,3-difluoro-1-[(2-fluoropyridin-4-yl)methyl]-4-[(1R)-2,2,2-trifluoro-1-hydroxyethyl]-1,3-dihydro-2H-indol-2-one], the half-maximal inhibitory concentration (IC50) (glycine uptake inhibition) worked out at 200 nM. The same measure, in the same setting: next, `CC(O)c1cccc2c1C(F)(F)C(=O)N2Cc1cccc(Cl)n1` (single isomer, unassigned) [Compound 5, 1-[(6-chloropyridin-2-yl)methyl]-3,3-difluoro-4-(1-hydroxyethyl)-1,3-dihydro-2H-indol-2-one]: 300 nM. `C[C@H](O)c1cccc2c1C(F)(F)C(=O)N2Cc1ccc(-n2nccn2)nc1` [Compound 196, 3,3-difluoro-4-[(1S)-1-hydroxyethyl]-1-{[6-(2H-1,2,3-triazol-2-yl)pyridin-3-yl]methyl)-1,3-dihydro-2H-indol-2-one] showed an IC50 of 4200 nM. As to `C[C@H](O)c1cccc2c1C(F)(F)C(=O)N2Cc1n[nH]c2ccccc12` [Compound 89, 3,3-difluoro-4-[(1S)-1-hydroxyethyl]-1-(1H-indazol-3-ylmethyl)-1,3-dihydro-2H-indol-2-one], the IC50 (glycine uptake inhibition) came to 190 nM. Still for that read-out and setting: next, `C[C@H](O)c1cccc2c1C(F)(F)C(=O)N2Cc1nc2ccccc2c(=O)n1C` [Compound 41, 2-({3,3-difluoro-4-[(1S)-1-hydroxyethyl]-2-oxo-2,3-dihydro-1H-indol-1-yl}methyl)-3-methylquinazolin-4(3H)-one]: 29 nM. On the same count and under the same terms, next, `Cn1c(CN2C(=O)C(F)(F)c3c([C@@H](O)C(F)(F)F)cccc32)cc2ccccc2c1=O` [Compound 142, 3-({3,3-difluoro-2-oxo-4-[(1R)-2,2,2-trifluoro-1-hydroxyethyl]-2,3-dihydro-1H-indol-1-yl}methyl)-2-methylisoquinan-1(2H)-one]: 130 nM. Consider `O=C1N(Cc2cnccc2Cl)c2cccc(C(O)C(F)F)c2C1(F)F` (single isomer, unassigned) [Compound 260, 1-[(4-chloropyridin-3-yl)mettiyl]-4-(2,2-difluoro-1-hydroxyethyl)-3,3-difluoro-1,3-dihydro-2H-indol-2-one], for which, under setting [1], the half-inhibitory concentration (IC50) was 1500 nM. Consider `C[C@H](O)c1cccc2c1C(F)(F)C(=O)N2Cc1ccncc1F` [Compound 163, 3,3-difluoro-1-[(3-fluoropyridin-4-yl)methyl]-4-[(1S)-1-hydroxyethyl]-1,3-dihydro-2H-indol-2-one], for which half-maximal inhibition (IC50) required 410 nM. As to `O=C1N(Cc2cncc(-n3nccn3)c2)c2cccc([C@@H](O)C(F)(F)F)c2C1(F)F` [Compound 134, 3,3-difluoro-1-{[5-(2H-1,2,3-triazol-2-yl)pyridin-3-yl]methyl}-4-[(1R)-2,2,2-trifluoro-1-hydroxyethyl]-1,3-dihydro-2H-indol-2-one], inhibition (glycine uptake inhibition) was half-maximal at 66 nM (IC50).

On to `N#Cc1nc(CN2C(=O)C(F)(F)c3c(C(O)C(F)F)cccc32)ccc1C(F)(F)F` (single isomer, unassigned) [Compound 270, 6-{[4-(2,2-difluoro-1-hydroxyethyl)-3,3-difluoro-2-oxo-2,3-dihydro-1H-indol-1-yl]methyl}-3-(trifluoromethyl) pyridine-2-carbonitrile], for which half-maximal inhibition under setting [1] (IC50) required 8.4 nM. With `Cn1c(=O)c(CN2C(=O)C(F)(F)c3c([C@@H](O)C(F)(F)F)cccc32)nc2ccccc21` [Compound 141, 3-({3,3-difluoro-2-oxo-4-[(1R)-2,2,2-trifluoro-1-hydroxyethyl]-2,3-dihydro-1H-indol-1-yl}methyl)-1-methylquinoxalin-2(1H)-one], inhibition (glycine uptake inhibition) was half-maximal at 100 nM (IC50). In the case of `C[C@H](O)c1cccc2c1C(F)(F)C(=O)N2Cc1cccnc1` [Compound 61, 3,3-difluoro-4-[(1S)-1-hydroxyethyl]-1-(pyridin-3-ylmethyl)-1,3-dihydro-2H-indol-2-one], the IC50 (glycine uptake inhibition) came to 420 nM. In turn, `C[C@H](O)c1cccc2c1C(F)(F)C(=O)N2Cc1ccc(C2CC2)nc1` [Compound 198, 1-[(6-cyclopropylpyridin-3-yl)methyl]-3,3-difluoro-4-[(1S)-1-hydroxyethyl]-1,3-dihydro-2H-indol-2-one] gave an IC50 of 160 nM.

Where the note is “glycine uptake inhibition”, `C[C@H](O)c1cccc2c1C(F)(F)C(=O)N2Cc1cncc(C(F)F)c1` [Compound 116, 1-{[5-(difluoromethyl)pyridin-3-yl]methyl}-3,3-difluoro-4-[(1S)-1-hydroxyethyl]-1,3-dihydro-2H-indol-2-one] gave an IC50 of 110 nM. Compound `O=C1N(Cc2cnc(Cl)cc2Cl)c2cccc(C(O)C(F)F)c2C1(F)F` (single isomer, unassigned) [Compound 269, 1-[(4,6-dichloropyridin-3-yl)methyl]-4-(2,2-difluoro-1-hydroxyethyl)-3,3-difluoro-1,3-dihydro-2H-indol-2-one] gave an IC50 under setting [1] of 330 nM. In turn, `COc1nc(CN2C(=O)C(F)(F)c3c([C@H](C)O)cccc32)ccc1Cl` [Compound 249, 1-[(5-chloro-6-methoxypyridin-2-yl)methyl]-3,3-difluoro-4-[(1S)-1-hydroxyethyl]-1,3-dihydro-2H-indol-2-one] had an IC50 of 58 nM. Take `C[C@H](O)c1cccc2c1C(F)(F)C(=O)N2Cc1ccnc(C#N)c1Cl` [Compound 192]: half-maximal inhibition (IC50) required 67 nM. `C[C@H](O)c1cccc2c1C(F)(F)C(=O)N2Cc1cc(Br)ccn1` [Compound 123, 1-[(4-bromopyridin-2-yl)methyl]-3,3-difluoro-4-[(1S)-1-hydroxyethyl]-1,3-dihydro-2H-indol-2-one] displayed a 50% inhibitory concentration (IC50) (glycine uptake inhibition) of 22 nM. `C[C@H](O)c1cccc2c1C(F)(F)C(=O)N2Cc1nc2ccccc2[nH]c1=O` [Compound 98, 3-({3,3-difluoro-4-[(1S)-1-hydroxyethyl]-2-oxo-2,3-dihydro-1H-indol-1-yl}methyl) quinoxalin-2(1H)-one] yielded a half-inhibitory concentration (IC50) (glycine uptake inhibition) of 34 nM. Still for that read-out and setting: next, `C[C@H](O)c1cccc2c1C(F)(F)C(=O)N2Cc1ccc(C(F)F)nc1` [Compound 130, 1-{[6-(difluoromethyl)pyridin-3-yl]methyl}-3,3-difluoro-4-[(1S)-1-hydroxyethyl]-1,3-dihydro-2H-indol-2-one]: 400 nM; `O=C1N(Cc2cncc(Cl)c2)c2cccc(C(O)C(F)(F)F)c2C1(F)F` (single isomer, unassigned) [Compound 22, 1-[(5-chloropyridin-3-yl)methyl]-3,3-difluoro-4-(2,2,2-trifluoro-1-hydroxyethyl)-1,3-dihydro-2H-indol-2-one]: 1900 nM.

As to `C[C@H](O)c1cccc2c1C(F)(F)C(=O)N2Cc1ccc(C(F)(F)F)nc1Cl` [Compound 239, 1-{[2-chloro-6-(trifluoromethyl)pyridin-3-yl]methyl}-3,3-difluoro-4-[(1S)-1-hydroxyethyl]-1,3-dihydro-2H-indol-2-one], the IC50 came to 220 nM. Under “glycine uptake inhibition”, `O=C1N(Cc2ccnc(C(F)F)c2)c2cccc(C(O)C(F)F)c2C1(F)F` (single isomer, unassigned) [Compound 152, 4-(2,2-difluoro-1-hydroxyethyl)-1-{[2-(difluoromethyl)pyridin-4-yl]methyl}-3,3-difluoro-1,3-dihydro-2H-indol-2-one] registered an IC50 of 88 nM. In turn, `C[C@H](O)c1cccc2c1C(F)(F)C(=O)N2Cc1cc(C(F)(F)F)c(Cl)cn1` [Compound 212, 1-{[5-chloro-4-(trifluoromethyl)pyridin-2-yl]methyl}-3,3-difluoro-4-[(1S)-1-hydroxyethyl]-1,3-dihydro-2H-indol-2-one] registered an IC50 of 8.2 nM.

With `COc1cccc(CN2C(=O)C(F)(F)c3c(C(O)C(F)F)cccc32)n1` (single isomer, unassigned) [Compound 256, 4-(2,2-difluoro-1-hydroxyethyl)-3,3-difluoro-1-[(6-methoxypyridin-2-yl)methyl)-1,3-dihydro-2H-indol-2-one], the concentration for half-maximal inhibition (IC50) was 9.6 nM. The compound `O=C1N(Cc2ccnc(Cl)c2)c2cccc(C(O)C(F)F)c2C1(F)F` (single isomer, unassigned) [Compound 36, 1-[(2-chloropyridin-4-yl)methyl]-4-(2,2-difluoro-1-hydroxyethyl)-3,3-difluoro-1,3-dihydro-2H-indol-2-one] gave an IC50 (glycine uptake inhibition) of 13 nM.
